Our source for the IC50 values is patent US12398120B2, “Substituted hydantoinamides as ADAMTS7 antagonists” (BAYER AKTIENGESELLSCHAFT, priority 2019, dated 2025).

A value given as a limit tells only on which side of the number the result lay.

This experiment deals with ADAMTS4 (Homo sapiens (Human), UniProt O75173). Kind of experiment: Selectivity assay for ADAMTS-7 modulators: ADAMTS4 (FRET substrate). The following applies: ADAMTS4 (R&D 4307-AD) 50 nM, substrate Dabcyl-EEVKAKVQPY-Glu(Edans)-NH2 1 μM, 120 min, 32° C. In kind it is biochemical. An outline of the steps: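 Activity read as rising fluorescence after a FRET substrate is cleaved by human ADAMTS4, with reactions started by substrate addition to wells holding compound or DMSO. Percent inhibition plotted against concentration gave IC50.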
Sequence of ADAMTS4 (O75173 213-685): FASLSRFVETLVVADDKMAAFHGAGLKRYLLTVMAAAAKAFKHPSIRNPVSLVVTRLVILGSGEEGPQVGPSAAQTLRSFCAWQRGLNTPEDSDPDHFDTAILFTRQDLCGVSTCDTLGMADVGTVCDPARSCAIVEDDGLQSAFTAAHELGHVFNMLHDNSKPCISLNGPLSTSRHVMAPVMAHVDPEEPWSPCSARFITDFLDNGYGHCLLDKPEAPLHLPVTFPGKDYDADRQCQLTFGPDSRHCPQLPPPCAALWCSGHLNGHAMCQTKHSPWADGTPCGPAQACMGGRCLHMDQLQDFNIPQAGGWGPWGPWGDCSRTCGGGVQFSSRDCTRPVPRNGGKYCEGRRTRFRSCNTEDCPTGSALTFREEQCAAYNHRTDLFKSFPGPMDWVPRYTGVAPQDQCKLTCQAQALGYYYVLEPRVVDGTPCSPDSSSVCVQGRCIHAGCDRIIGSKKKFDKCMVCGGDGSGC

`O=C1NC(=O)[C@](CNC(=O)c2ccc(F)cc2-c2ccc(C(F)(F)F)cc2)(C2CC2)N1` [Example 116, N-{[(4R)-4-Cyclopropyl-2,5-Dioxoimidazolidin-4-Yl]Methyl}-5-Fluoro-4′-(Trifluoromethyl)[Biphenyl]-2-Carboxamide] had a 50% inhibitory concentration (IC50) of 12 µM. To `Cc1ncsc1C1(CNC(=O)c2ccccc2-c2ccc(C(F)(F)F)cc2)NC(=O)NC1=O` (stereo not drawn) [Example 27, Ent-N-{[4-(4-Methyl-1,3-Thiazol-5-Yl)-2,5-Dioxoimidazolidin-4-Yl]Methyl}-4′-(Trifluoromethyl)[Biphenyl]-2-Carboxamide] belongs 9.1 µM; to `Cc1scnc1C1(CNC(=O)c2ccc(F)cc2-c2ccc(Cl)cc2)NC(=O)NC1=O` (single isomer, unassigned; ent-4) [Example 170, Ent-4′-Chloro-5-Fluoro-N-{[4-(5-Methyl-1,3-Thiazol-4-Yl)-2,5-Dioxoimidazolidin-4-Yl]Methyl}[Biphenyl]-2-Carboxamide], 4.9 µM; to `Cc1ccc(-c2ccccc2C(=O)NC[C@@]2(C3CC3)NC(=O)NC2=O)cc1Cl` [Example 225, 3′-Chloro-N-{[(4R)-4-Cyclopropyl-2,5-Dioxoimidazolidin-4-Yl]Methyl}-4′-Methyl[1,1′-Biphenyl]-2-Carboxamide], 21 µM. For `O=C1NC(=O)[C@](CNC(=O)c2cc(F)ccc2-c2ccc(C(F)(F)F)cc2)(C2CC2)N1` [Example 121, N-{[(4R)-4-Cyclopropyl-2,5-Dioxoimidazolidin-4-Yl]Methyl}-4-Fluoro-4′-(Trifluoromethyl)[Biphenyl]-2-Carboxamide], the IC50 came to 5.9 µM.

As for `Cc1scnc1C1(CNC(=O)c2cc(F)ccc2-c2ccc(Cl)cc2)NC(=O)NC1=O` (single isomer, unassigned; ent-4) [Example 174, Ent-4′-Chloro-4-Fluoro-N-{[4-(5-Methyl-1,3-Thiazol-4-Yl)-2,5-Dioxoimidazolidin-4-Yl]Methyl}[Biphenyl]-2-Carboxamide], the 50% inhibitory concentration (IC50) was determined as 2.6 µM.

Turning to `Cn1ccnc1C1(CNC(=O)c2ccc(F)cc2-c2ccc(Cl)cc2)NC(=O)NC1=O` (single isomer, unassigned; ent-4) [Example 157, Ent-4′-Chloro-5-Fluoro-N-{[4-(1-Methyl-1H-Imidazol-2-Yl)-2,5-Dioxoimidazolidin-4-Yl]Methyl}[Biphenyl]-2-Carboxamide], inhibition was half-maximal at 3 µM (IC50). For the compound `O=C1NC(=O)C(CNC(=O)c2ccc(F)cc2-c2ccc(C(F)(F)F)cc2)(c2cscn2)N1` (stereo not drawn) [Example 199, Ent-N-{[2,5-Dioxo-4-(1,3-Thiazol-4-Yl)Imidazolidin-4-Yl]Methyl}-5-Fluoro-4′-(Trifluoromethyl)[Biphenyl]-2-Carboxamide], half-maximal inhibition (IC50) was put at 16 µM. `Cc1scnc1C1(CNC(=O)c2ccccc2-c2ccc(Cl)cc2)NC(=O)NC1=O` (single isomer, unassigned; ent-4) [Example 172, Ent-4′-Chloro-N-{[4-(5-Methyl-1,3-Thiazol-4-Yl)-2,5-Dioxoimidazolidin-4-Yl]Methyl}[Biphenyl]-2-Carboxamide]: 3.1 µM corresponded to half-maximal inhibition (IC50). The value for `O=C1NC(=O)C(CNC(=O)c2ccccc2-c2ccc(C(F)(F)F)cc2)(C2(Cl)CC2)N1` (racemic) [Example 279, Rac-N-{[4-(1-Chlorocyclopropyl)-2,5-Dioxoimidazolidin-4-Yl]Methyl}-4′-(Trifluoromethyl)[Biphenyl]-2-Carboxamide] was 13 µM; that for `O=C1NC(=O)[C@](CNC(=O)c2cc(F)c(F)cc2-c2ccc(C3CC3(F)F)cc2)(C2CC2)N1` (stereo partly drawn) [Example 144, N-{[(4R)-4-Cyclopropyl-2,5-Dioxoimidazolidin-4-Yl]Methyl}-4′-(2,2-Difluorocyclopropyl)-4,5-Difluoro[1,1′-Biphenyl]-2-Carboxamide] was 25 µM; that for `O=C1NC(=O)[C@](CNC(=O)c2ccc(Cl)cc2-c2ccc(C(F)(F)F)cc2)(C2CC2)N1` [Example 216, 5-Chloro-N-{[(4R)-4-Cyclopropyl-2,5-Dioxoimidazolidin-4-Yl]Methyl}-4′-(Trifluoromethyl)[1,1′-Biphenyl]-2-Carboxamide] was 9.1 µM.

Take `Cn1ccnc1C1(CNC(=O)c2ccccc2-c2ccc(C(F)(F)F)cc2)NC(=O)NC1=O` (stereo not drawn) [Example 148, Ent-N-{[4-(1-Methyl-1H-Imidazol-2-Yl)-2,5-Dioxoimidazolidin-4-Yl]Methyl}-4′-(Trifluoromethyl)[Biphenyl]-2-Carboxamide]: the IC50 worked out at 1.84 µM. The value for `Cc1cnoc1C1(CNC(=O)c2ccccc2-c2ccc(C(F)(F)F)nc2)NC(=O)NC1=O` (stereo not drawn) [Example 78, Ent-N-{[4-(4-Methyl-1,2-Oxazol-5-Yl)-2,5-Dioxoimidazolidin-4-Yl]Methyl}-2-[6-(Trifluoromethyl)Pyridin-3-Yl]Benzamide] was 14 µM; that for `Cc1scnc1C1(CNC(=O)c2ccccc2-c2ccc(S(C)(=O)=O)cc2)NC(=O)NC1=O` (single isomer, unassigned; ent-4) [Example 175, Ent-4′-(Methylsulfonyl)-N-{[4-(5-Methyl-1,3-Thiazol-4-Yl)-2,5-Dioxoimidazolidin-4-Yl]Methyl}[Biphenyl]-2-Carboxamide] was 4.9 µM; that for `CC(C)C1(CNC(=O)c2cc(F)ccc2-c2ccc(C(F)(F)F)cc2)NC(=O)NC1=O` (single isomer, unassigned; ent-4) [Example 212, Ent-4-Fluoro-N-[(4-Isopropyl-2,5-Dioxoimidazolidin-4-Yl)Methyl]-4′-(Trifluoromethyl)[Biphenyl]-2-Carboxamide] was 13 µM. `O=C1NC(=O)C(CNC(=O)c2ccc(F)cc2-c2ccc(C(F)(F)F)cc2)(C23CC(F)(C2)C3)N1` (single isomer, unassigned; ent-5) [Example 294, Ent-5-Fluoro-N-{[4-(3-Fluorobicyclo[1.1.1]Pentan-1-Yl)-2,5-Dioxoimidazolidin-4-Yl]Methyl}-4′-(Trifluoromethyl)[Biphenyl]-2-Carboxamide] yielded an IC50 of 37 µM. The value for `O=C1NC(=O)C(CNC(=O)c2ccccc2-c2ccc(C(F)(F)F)cc2)(c2ncsc2C(F)(F)F)N1` (stereo not drawn) [Example 264, Ent-N-({2,5-Dioxo-4-[5-(Trifluoromethyl)-1,3-Thiazol-4-Yl]Imidazolidin-4-Yl}Methyl)-4′-(Trifluoromethyl)[Biphenyl]-2-Carboxamide] was 11 µM. To `O=C1NC(=O)C(CNC(=O)c2ccccc2-c2ccc(Cl)cc2)(C2CC(F)(F)C2)N1` (single isomer, unassigned; ent-4) [Example 247, Ent-4′-Chloro-N-{[4-(3,3-Difluorocyclobutyl)-2,5-Dioxoimidazolidin-4-Yl]Methyl}[Biphenyl]-2-Carboxamide] belongs over 50 µM. For `CC1(CNC(=O)c2ccccc2-c2ccc(C(F)(F)F)cc2)NC(=O)NC1=O` (stereo not drawn) [Example 96, Ent-N-[(4-Methyl-2,5-Dioxoimidazolidin-4-Yl)Methyl]-4′-(Trifluoromethyl)[Biphenyl]-2-Carboxamide], the IC50 came out at 46 µM. To `COc1cc(Cl)ccc1-c1ccccc1C(=O)NCC1(c2ccnn2C)NC(=O)NC1=O` (single isomer, unassigned; ent-4) [Example 314, Ent-4′-Chloro-2′-Methoxy-N-{[4-(1-Methyl-1H-Pyrazol-5-Yl)-2,5-Dioxoimidazolidin-4-Yl]Methyl}[Biphenyl]-2-Carboxamide] belongs over 50 µM. Turning to `O=C1NC(=O)[C@](CNC(=O)c2ccncc2-c2ccc(C(F)(F)F)cc2)(C2CC2)N1` [Example 83, N-{[(4R)-4-Cyclopropyl-2,5-Dioxoimidazolidin-4-Yl]Methyl}-3-[4-(Trifluoromethyl)Phenyl]Pyridine-4-Carboxamide], the IC50 came to 36 µM. To `Cc1ncsc1C1(CNC(=O)c2cc(F)ccc2-c2ccc(C(F)(F)F)cc2)NC(=O)NC1=O` (single isomer, unassigned; ent-4) [Example 11, Ent-4-Fluoro-N-{[4-(4-Methyl-1,3-Thiazol-5-Yl)-2,5-Dioxoimidazolidin-4-Yl]Methyl}-4′-(Trifluoromethyl)[Biphenyl]-2-Carboxamide] belongs 5.9 µM; to `O=C1NC(=O)C(CNC(=O)c2ccccc2-c2ccc(C(F)(F)F)cc2)(C2(Cl)CC2)N1` (stereo not drawn) [Example 280, Ent-N-{[4-(1-Chlorocyclopropyl)-2,5-Dioxoimidazolidin-4-Yl]Methyl}-4′-(Trifluoromethyl)[Biphenyl]-2-Carboxamide], 7.1 µM. Compound `Cc1ncsc1C1(CNC(=O)c2ccc(Cl)cc2-c2ccc(C(F)(F)F)cc2)NC(=O)NC1=O` (single isomer, unassigned; ent-5) [Example 7, Ent-5-Chloro-N-{[4-(4-Methyl-1,3-Thiazol-5-Yl)-2,5-Dioxoimidazolidin-4-Yl]Methyl}-4′-(Trifluoromethyl)[Biphenyl]-2-Carboxamide] came in with an IC50 of 3.7 µM. The value for `Cc1scnc1C1(CNC(=O)c2cc(Cl)ccc2-c2ccc(C(F)(F)F)cc2)NC(=O)NC1=O` (single isomer, unassigned; ent-4) [Example 18, Ent-4-Chloro-N-{[4-(5-Methyl-1,3-Thiazol-4-Yl)-2,5-Dioxoimidazolidin-4-Yl]Methyl}-4′-(Trifluoromethyl)[Biphenyl]-2-Carboxamide] was 41 µM; that for `O=C1NC(=O)C(CNC(=O)c2ccc(F)c(F)c2-c2ccc(C(F)(F)F)cc2)(c2ccnn2-c2ccccc2)N1` (racemic) [Example 315, Rac-N-{[2,5-Dioxo-4-(1-Phenyl-1H-Pyrazol-5-Yl)Imidazolidin-4-Yl]Methyl}-5,6-Difluoro-4′-(Trifluoromethyl)[Biphenyl]-2-Carboxamide] was 1.3 µM. To `Cn1nccc1C1(CNC(=O)c2ccc(Cl)cc2-c2ccc(C(F)(F)F)cc2)NC(=O)NC1=O` (single isomer, unassigned; ent-5) [Example 188, Ent-5-Chloro-N-{[4-(1-Methyl-1H-Pyrazol-5-Yl)-2,5-Dioxoimidazolidin-4-Yl]Methyl}-4′-(Trifluoromethyl)[Biphenyl]-2-Carboxamide] belongs 2.73 µM.

As a reminder, the IC50 is the point on the concentration scale where inhibition reaches its midpoint. Higher therefore signals weaker potency.
